Reference: patent US20240271184A1, “LOW PH COMPOSITION AND METHOD FOR S[…] ACIDS IN BIOLOGICAL SAMPLES” (priority 2021, published 2024)

Experiments:
[1] = system: nucleases in saliva samples; type: biochemical, human; conditions: for rRNA doublet integrity and RIN in saliva: pH 4.71; for degradation of RNA in saliva samples obtained from nuclease-rich donors: pH 5.2; for RNA stability and RIN as pH decreased: pH 5; for rRNA doublet and RIN of spiked RNA in saliva: T2
[2] = Solubility of salts in the present composition; conditions: 4% SDS/100 mM CDTA/10 mM ATA/10 mg/mL PAAc
[3] = system: nucleases in stool samples; type: biochemical, human; conditions: pH 4.7
[4] = system: RNAse activity in saliva samples; assay: Nuclease assay (RNAseAlert) in saliva mixed 1:1 with formulation; type: biochemical, human; conditions: ATA 5 mM final; PAAc at pH 4.7; CDTA when ATA was present; saliva 1:1

sodium lauroyl sarcosinate [Sarkosyl]
rRNA doublet integrity and RIN in saliva [1]: doublet was degraded and the RIN was significantly reduced

Cc1ccc(S(=O)(=O)O)cc1.[Na] [sodium p-toluenesulfonate]
degradation of RNA in saliva samples obtained from nuclease-rich donors [1]: Degradation of RNA

Cl.N=C(N)N [GuHCl, guanidinium hydrochloride]
RNA stability and RIN as pH decreased [1]: surprising improvement in RNA stability and corresponding increase in RIN

N[C@H]1C(O)O[C@H](COP(=O)(O)O)[C@@H](O)[C@@H]1O (some centres unmarked) [glucosamine 6-phosphate]
degradation of RNA in saliva samples obtained from nuclease-rich donors [1]: Degradation of RNA

O=C(O[C@@H]1Cc2c(O)cc(O)cc2O[C@@H]1c1cc(O)c(O)c(O)c1)c1cc(O)c(O)c(O)c1 [EGCG, epigallocatechin gallate]
degradation of RNA in saliva samples obtained from nuclease-rich donors [1]: did not prevent degradation of RNA

CCCCCCCCCCCCCCCC[N+](C)(C)C.[Br-] [CTAB, Cetyltrimethylammonium bromide]
rRNA doublet integrity and RIN in saliva [1]: doublet was degraded and the RIN was significantly reduced

O=C(O)CCP(CCC(=O)O)CCC(=O)O [tris(2-carboxyethyl)phosphine]
degradation of RNA in saliva samples obtained from nuclease-rich donors [1]: Degradation of RNA

[Cl-].[K+] [KCl]
solubility in the present composition [2]: solubility issues

CCCCCCCCCCCCOS(=O)(=O)[O-].[Na+] [SDS, sodium dodecyl sulfate]
rRNA doublet integrity and RIN in saliva [1]: able to preserve the integrity of rRNA

O=C(O)c1cc(SSc2ccc([N+](=O)[O-])c(C(=O)O)c2)ccc1[N+](=O)[O-] [5,5-dithio-bis-(2-nitrobenzoic acid)]
degradation of RNA in saliva samples obtained from nuclease-rich donors [1]: Degradation of RNA

[Cl-].[Na+] [NaCl, sodium chloride]
rRNA doublet and RIN of spiked RNA in saliva [1]: rRNA doublet was intact and the RIN was high

O=S(=O)(O)c1cc(O)c2c(O)c(/N=N/c3cccc4ccccc34)c(S(=O)(=O)O)cc2c1 [pontacyl violet 6R]
degradation of RNA in saliva samples obtained from nuclease-rich donors [1]: Degradation of RNA

OCCS [β-2-mercaptoethanol]
degradation of RNA in saliva samples obtained from nuclease-rich donors [1]: Degradation of RNA

[Cl-].[Li+] [LiCl, lithium chloride]
rRNA doublet and RIN of spiked RNA in saliva [1]: rRNA doublet was intact and the RIN was high

O=C(O)c1cc2cccc([N+](=O)[O-])c2[nH]1 [7-nitroindole-2-carboxylic acid]
degradation of RNA in saliva samples obtained from nuclease-rich donors [1]: Degradation of RNA

O=S(=O)([O-])[O-].[Li+].[Li+] [Li2SO4, lithium sulphate]
rRNA doublet and RIN of spiked RNA in saliva [1]: rRNA doublet was intact and the RIN was high

ribonucleoside vanadyl complexes
degradation of RNA in saliva samples obtained from nuclease-rich donors [1]: Degradation of RNA

O[C@H](CS)[C@H](O)CS (racemic) [dithiothreitol]
degradation of RNA in saliva samples obtained from nuclease-rich donors [1]: Degradation of RNA

O=C(O)CN(CC(=O)O)C1CCCCC1N(CC(=O)O)CC(=O)O (centres unmarked) [CDTA, 1,2-cyclohexanediaminetetraacetic acid]
RIN and rRNA doublet of spiked RNA in stool [3]: RIN values increased and rRNA doublet remained intact
effect on RNAse activity of addition to guanidinium salt-based compositions [4]: minimal effect on RNAse activity

N#CS.N=C(N)N [GTC, guanidinium thiocyanate]
relative effectiveness for stabilizing RNA at low pH [1]: more effective than GuHCl
RNA stability and RIN as pH decreased [1]: surprising improvement in RNA stability and corresponding increase in RIN

B1: recombinant human placental RNAse inhibitor (protein, UniProt P13489 2-461, looked up)
Ribonuclease inhibitor: SLDIQSLDIQCEELSDARWAELLPLLQQCQVVRLDDCGLTEARCKDISSALRVNPALAELNLRSNELGDVGVHCVLQGLQTPSCKIQKLSLQNCCLTGAGCGVLSSTLRTLPTLQELHLSDNLLGDAGLQLLCEGLLDPQCRLEKLQLEYCSLSAASCEPLASVLRAKPDFKELTVSNNDINEAGVRVLCQGLKDSPCQLEALKLESCGVTSDNCRDLCGIVASKASLRELALGSNKLGDVGMAELCPGLLHPSSRLRTLWIWECGITAKGCGDLCRVLRAKESLKELSLAGNELGDEGARLLCETLLEPGCQLESLWVKSCSFTAACCSHFSSVLAQNRFLLELQISNNRLEDAGVRELCQGLGQPGSVLRVLWLADCDVSDSSCSSLAATLLANHSLRELDLSNNCLGDAGILQLVESVRQPGCLLEQLVLYDIYWSEEMEDRLQALEKDKPSLRVIS
degradation of RNA in saliva samples obtained from nuclease-rich donors [1]: Degradation of RNA
